In publication PMC7459591 (Marine Drugs, 2020):

Columns and labels:
human Kv1.4 channel = format: cell-based
human Kv1.5 channel = format: cell-based

## CSCC[C@H](NC(=O)[C@@H]1CCCN1C(=O)CNC(=O)[C@H](CO)NC(=O)[C@@H](NC(=O)[C@H](C)N)[C@@H](C)O)C(=O)NCC(=O)N[C@@H](Cc1c[nH]c2ccccc12)C(=O)N[C@@H](CC(C)C)C(=O)N1CCC[C@H]1C(=O)N[C@H](C(=O)N[C@@H](Cc1ccccc1)C(=O)N[C@@H](Cc1ccc(O)cc1)C(=O)N[C@@H](CCCNC(=N)N)C(=O)N[C@@H](Cc1ccccc1)C(N)=O)C(C)C [CNF-Sr3, Conorfamide-Sr3]
Human Kv1.4 channel
  Decrease of current, Kv1.4: less than 5%
Human Kv1.5 channel
  Decrease of current, Kv1.5: less than 5%
